From patent publication US12590063B2, “Phenol derivative” (Sumitomo Pharma Co., Ltd., priority 2020, dated 2026)
Structures can show the parent of a compound that is named as a salt. Marks after values point to notes of the source that are not given here.

Legend:
normal rats [1] = test: Evaluation of effect of increasing swallowing in normal rats; format: in vivo, rat; details: anesthetized normal rats; for number of swallowings, Average: pharyngeal infusion 12 ml/h for 10 seconds, counted for 30 seconds
Experimental: Test Example 5: Evaluation of Effect of Increasing Swallowing in Normal Rats
This test is for evaluating the effect of increasing swallowing function of drugs. It has been reported that induction of the swallowing reflex in normal rats using NaCl-containing water suppresses the number of swallows, and the increase in swallowing function was evaluated using a NaCl-containing solvent. After the induction of anesthesia in Crl:CD(SD) male rats (7 to 8 rats per group, 8 to 9 weeks old, body weight 280 to 310 g: at the time of arrival), the animals were sheared under the jaw with clippers and held in a supine position on a heat pad kept at 37° C. to prevent limb movement. A rat sonde was inserted into the animals' mouths, and the tip of the sonde was retained in the pharynx. Under this condition, the test substance administration solution was administered at 12 ml/h for 10 seconds using an infusion pump, and the swallowing movements were measured for 30 seconds from the initiation of administration. Note that the vehicle used was saline solution containing 1% ethanol and 0.1% Tween 80.

normal rats [2] = test: Desensitization of effect of increasing swallowing in normal rats; format: in vivo, rat; details: for number of swallows, Average, First time: 1st of five administrations about 5 minutes apart; for number of swallows, Average, Second time: 2nd of five administrations about 5 minutes apart; for number of swallows, Average, Third time: 3rd of five administrations about 5 minutes apart; for number of swallows, Average, Fourth time: 4th of five administrations about 5 minutes apart; for number of swallows, Average, Fifth time: 5th of five administrations about 5 minutes apart; for number of swallows at repeated administrations compared to the 1st administration (Dunnett's test): five administrations about 5 minutes apart
Description: Test Example 6: Evaluation with Respect to Desensitization of Effect of Increasing Swallowing in Normal Rats
TRPV1 agonists are known to induce TRPV1 desensitization when given at high doses or repeatedly. Using the same method as in Test Example 5, the effect of drugs on normal swallowing function in rats to induce desensitization was investigated. After the induction of anesthesia in Crl:CD(SD) male rats (7 to 8 rats per group, 8 to 9 weeks old, body weight 280 to 310 g: at the time of arrival), the animals were sheared under the jaw with clippers and held in a supine position on a heat pad kept at 37° C. to prevent limb movement. A sonde was inserted into the animals' mouths, and the tip of the sonde was retained in the pharynx. Under this condition, the test substance administration solution was administered at 12 ml/h for 10 seconds using an infusion pump, and the swallowing movements were measured for 30 seconds from the initiation of administration. Thereafter, the same test was performed about 5 minutes later, and the evaluation was repeated for a total of five times. Note that the vehicle used was saline solution containing 1% ethanol and 0.1% Tween 80.

normal rats [3] = test: Test for eye stimulatory properties in normal rats; format: in vivo, rat; details: for Number of eye-wiping (Average ± Standard deviation): 10 μL into the right eye, observed for 1 minute
Experimental: Test Example 7: Evaluation with Respect to Test for Eye Stimulatory Properties in Normal Rats
It has been reported that TRPV1 agonists have stimulatory properties and that administration of TRPV1 agonist solutions to the eye can induce wiping behavior. The stimulatory properties of the compounds were investigated using normal rats. Crl:CD(SD) male rats (5 rats per group, 8 weeks old, body weight 271 to 320 g) were held unanesthetized and 10 μL was dropped into the right eye using a micropipette.

Human TRPV1 = target: T1, Human TRPV1 (Homo sapiens, UniProt Q8NER1); test: Evaluation of agonistic properties using human TRPV1 transiently expressing cells; format: cell-based; details: for EC50: HEK293 cells transiently expressing human TRPV1 and apoaequorin, luminescence signal Rlu (Max-Min), read-out: TRPV1 EC50; for TRPV-1-agonistic activity (in words): evaluation test for TRPV-1-agonistic properties, summary of Tables 3 and 4
T1 construct: the TRPV1 gene (GenBank NP_542435.2) had been inserted; expressed in transfected cells; host or cells: HEK293 cells (cat #CCL-82.2, ATCC), transient transfection with pcDNA3.1
T1 sequence (Q8NER1 whole entry): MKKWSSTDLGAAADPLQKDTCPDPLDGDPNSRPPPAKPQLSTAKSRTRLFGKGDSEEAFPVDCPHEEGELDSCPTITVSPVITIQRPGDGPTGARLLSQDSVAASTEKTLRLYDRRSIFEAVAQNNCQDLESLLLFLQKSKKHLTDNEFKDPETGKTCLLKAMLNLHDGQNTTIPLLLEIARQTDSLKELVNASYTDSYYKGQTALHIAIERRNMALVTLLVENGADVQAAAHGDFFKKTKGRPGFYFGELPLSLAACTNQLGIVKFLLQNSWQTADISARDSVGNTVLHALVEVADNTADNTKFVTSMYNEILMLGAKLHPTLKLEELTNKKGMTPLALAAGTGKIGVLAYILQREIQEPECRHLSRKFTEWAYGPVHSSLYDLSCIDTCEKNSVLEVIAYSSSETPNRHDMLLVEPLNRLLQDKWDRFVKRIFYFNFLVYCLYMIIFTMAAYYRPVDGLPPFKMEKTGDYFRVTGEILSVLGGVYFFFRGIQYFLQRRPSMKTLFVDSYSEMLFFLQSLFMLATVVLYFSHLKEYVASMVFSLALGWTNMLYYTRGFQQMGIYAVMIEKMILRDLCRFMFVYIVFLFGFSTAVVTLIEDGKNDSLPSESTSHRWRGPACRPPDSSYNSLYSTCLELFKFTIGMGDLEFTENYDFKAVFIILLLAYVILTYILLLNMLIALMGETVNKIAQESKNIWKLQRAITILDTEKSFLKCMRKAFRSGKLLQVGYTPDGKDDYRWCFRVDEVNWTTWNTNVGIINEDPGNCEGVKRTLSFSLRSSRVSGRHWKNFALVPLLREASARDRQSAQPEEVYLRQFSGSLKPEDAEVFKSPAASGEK
In short: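 HEK293 cells transiently co-expressing human TRPV1 and apoaequorin, loaded with 4.5 μM Viviren in HBSS/HEPES/0.1% BSA for 2 h at RT in the dark. Compound-evoked luminescence (465 nm) measured after addition; agonism expressed as Rlu (Max−Min).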

Crl:CD(SD) rats = test: Evaluation of taste aversion by drinking water; format: in vivo, rat; details: two-bottle choice, overnight
Experimental: Test Example 3: Evaluation of Taste Aversion by Drinking Water
This test is for evaluating the taste aversion of drugs. The test was carried out by, while keeping Crl:CD(SD) rats (8 rats per group, 8 weeks old at the time of arrival) in home cages, adding the test substance solutions to water bottles. Two water bottles per cage were prepared, each filled with vehicle (sterile water containing 0.05% ethanol) and the test substance solution, and kept overnight, and the amount of water consumed during that period was measured. The proportion of water consumed with the test substance was calculated from the total amount of water consumed from the two water bottles, and the evaluation of taste aversion was carried out. It can be evaluated that the larger the proportion of water consumed with the test substance, the smaller the taste aversion and the smaller the stimulatory properties caused by the test substance.

[4] = Evaluation test for metabolic stability to S9; format: in vitro ADME; details: liver S9 fraction, 37° C., 15 minutes, final compound concentration 10 nM
In short: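 Compound at 10 nM final incubated with liver S9 fraction in phosphate buffer at 37 °C for 15 min, then quenched in acetonitrile. Remaining compound quantified by LC/MS/MS and expressed as residual rate relative to 0 min.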

Row | Compound | number of swallowings compared to the solvent administered group (Dunnett's test) (normal rats [1]) | number of swallowings, Average (normal rats [1]) | number of swallows, Average, First time (normal rats [2]; 10 μM) | number of swallows, Average, Second time (normal rats [2]; 10 μM) | number of swallows, Average, Third time (normal rats [2]; 10 μM) | number of swallows, Average, Fourth time (normal rats [2]; 10 μM) | number of swallows, Average, Fifth time (normal rats [2]; 10 μM) | number of swallows at repeated administrations compared to the 1st administration (Dunnett's test) (normal rats [2]) | number of wiping behaviors versus control (Dunnett's test) (normal rats [3]; rat, in vivo) | EC50 (Human TRPV1) | proportion of water consumed with the test substance (% Vehicle) (Crl:CD(SD) rats; 1 μM in drinking water) | proportion of water consumed with the test substance (% Vehicle) (Crl:CD(SD) rats; 3 μM in drinking water) | proportion of water consumed with the test substance (% Vehicle) (Crl:CD(SD) rats; 10 μM in drinking water) | Residual rate (%) [4] | TRPV-1-agonistic activity (in words) (Human TRPV1) | other results
1 | COc1cc(CC(=O)Nc2ccnc(-c3cccc(OC(=O)C(C)C)c3)c2)ccc1O [Example 49, 3-{4-[2-(4-Hydroxy-3-methoxyphenyl)acetamido]pyridin-2-yl}phenyl 2-methylpropanoate hydrochloride] | significantly increased | 15.0* | 12.3 | 12.4 | 12.9 | 11.3 | 14.4 | no significant difference | no significant difference | – | – | – | – | – | – | number of swallows, Average, First time (normal rats [2]; 30 μM): 17.1; number of swallows, Average, Second time (normal rats [2]; 30 μM): 13.9; number of swallows, Average, Third time (normal rats [2]; 30 μM): 14.1; number of swallows, Average, Fourth time (normal rats [2]; 30 μM): 12.4; number of swallows, Average, Fifth time (normal rats [2]; 30 μM): 12.7
2 | COc1cc(CC(=O)Nc2cccc([C@H]3CC[C@@H](OC(C)=O)CC3)c2)ccc1O [Example 12, cis-4-{3-[2-(4-hydroxy-3-methoxyphenyl)acetamido]phenyl}cyclohexyl acetate] | – | 19.4** | – | – | – | – | – | – | no significant difference | 6.3 nM | 103 % Vehicle | 31 % Vehicle | 22 % Vehicle | 2% | – | –
3 | COc1cc(CC(=O)Nc2cccc([C@H]3CC[C@@H](OC(=O)C4CCCCC4)CC3)c2)ccc1O [Example 2, cis-4-{3-[2-(4-Hydroxy-3-methoxyphenyl)acetamido]phenyl}cyclohexyl cyclohexanecarboxylate] | significantly increased | 17.8*** | – | – | – | – | – | – | no significant difference | 4.5 nM | 94 % Vehicle | 80 % Vehicle | 71 % Vehicle | 1% | stronger TRPV-1-agonistic activity | –
4 | COc1cc(CC(=O)Nc2cccc(-c3cccc(OC(=O)C(C)C)c3)n2)ccc1O [Example 1, 3-{6-[2-(4-Hydroxy-3-methoxyphenyl)acetamido]pyridin-2-yl}phenyl 2-methylpropanoate] | – | 7.6 | – | – | – | – | – | – | no significant difference | 2.6 nM | 90 % Vehicle | 66 % Vehicle | 35 % Vehicle | <1% | stronger TRPV-1-agonistic activity | –
5 | COc1cc(CNC(=O)CCCC/C=C/C(C)C)ccc1O [Capsaicin, capsaicin, reference compound] | significantly increased | 14.1* | 18.2 | 13.2 | 14 | 9.7** | 9.5** | significantly reduced at the 4th and 5th administrations | – | – | 13 % Vehicle | 9 % Vehicle | – | – | – | proportion of water consumed with the test substance (% Vehicle) (Crl:CD(SD) rats; 0.3 μM in drinking water): 71 % Vehicle; Number of eye-wiping (Average ± Standard deviation) (normal rats [3]; 1 μM): 2.0 ± 2.3; Number of eye-wiping (Average ± Standard deviation) (normal rats [3]; 3 μM): 0.2 ± 0.4; Number of eye-wiping (Average ± Standard deviation) (normal rats [3]; 10 μM): 6.4 ± 6.3; Number of eye-wiping (Average ± Standard deviation) (normal rats [3]; 30 μM): 6.4 ± 4.4; Number of eye-wiping (Average ± Standard deviation) (normal rats [3]; 100 μM): 21.4 ± 9.7; number of wiping behaviors versus control (Dunnett's test) (normal rats [3]; eye drop in unanesthetized rats): significantly increased the number of wiping behaviors at concentrations of 30 μM and more
